Assay results taken from PubChem BioAssay AID208 (DTP/NCI, 2004).
Results filed as inconclusive are left out.

Test system: HT29 intrarenal xenograft, nude mice, tumor weight change
Assay: NCI In Vivo Anticancer Drug Screen. Data for tumor model HT29;CX-1 Human Adenocarcinoma (MER+) (intrarenal inoculation) in NU/NU BALB/C (nude) mice
Conditions: endpoint: mean tumor weight change, higher = larger tumour
Method: The antitumor activity of compounds was measured in mice bearing transplantable tumors. Survival or tumor size were measured and the results are expressed as the measurement made in the treated group (T) divided by the measurement made in the vehicle treated control group (C). The tumor model used in this assay is HT29;CX-1 Human Adenocarcinoma (MER+) (intrarenal inoculation) in NU/NU BALB/C (nude) mice

[1] = dose: 2400.0 mg/kg/injection, schedule: Q04DX004 (sc), vehicle: saline with Tween-80
[2] = dose: 1200.0 mg/kg/injection, schedule: Q04DX004 (sc), vehicle: saline with Tween-80
[3] = dose: 150.0 mg/kg/injection, schedule: Q04DX004 (sc), vehicle: Klucel (hydroxypropylcellulose) (HPC)
[4] = dose: 600.0 mg/kg/injection, schedule: Q04DX004 (sc), vehicle: Klucel (hydroxypropylcellulose) (HPC)

With CS(=O)(=O)OCCCNCCCOS(C)(=O)=O the T/C (dose: 75.0 mg/kg/injection, schedule: Q04DX004 (sc), vehicle: saline) was 71 % of control.
In the case of Nc1nc(-c2ccccc2)c(Br)c(=O)[nH]1, the T/C (dose: 300.0 mg/kg/injection, schedule: Q04DX004 (sc), vehicle: saline with Tween-80) is reported as 124 % of control, the T/C (dose: 600.0 mg/kg/injection, schedule: Q04DX004 (sc), vehicle: saline with Tween-80) is reported as 117 % of control and the T/C [1] is reported as 102 % of control.
In the case of CN(C)P(=O)(Oc1ccccc1)N(C)C, the T/C [2] is reported as 78 % of control.
In the case of COc1ccc2c(ccc3oc([N+](=O)[O-])cc32)c1, the T/C [3] is reported as 113 % of control and the T/C [4] is reported as 76 % of control.
With CC1=C(O)C(=O)[C@@H]2O[C@@H]2C1=O the T/C (dose: 37.5 mg/kg/injection, schedule: Q04DX004 (sc), vehicle: saline) was 60 % of control.
With C/C(=N\NC(=S)N1CCN(c2ccccn2)CC1)c1ccccn1 the T/C (dose: 50.0 mg/kg/injection, schedule: Q04DX004 (sc), vehicle: water) was 158 % of control.
In the case of O=Cc1ccc(C=O)c(Cl)c1, the T/C [3] is reported as 92 % of control, the T/C (dose: 300.0 mg/kg/injection, schedule: Q04DX004 (sc), vehicle: Klucel (hydroxypropylcellulose) (HPC)) is reported as 81 % of control and the T/C [4] is reported as 109 % of control. The T/C (dose: 1200.0 mg/kg/injection, schedule: Q04DX004 (sc), vehicle: Klucel (hydroxypropylcellulose) (HPC)) was 114 % of control.
With CS(=O)(=O)c1ncc(Br)cn1 the T/C (dose: 25.0 mg/kg/injection, schedule: Q01DX010 (sc), vehicle: saline with Tween-80) was 106 % of control, the T/C (dose: 50.0 mg/kg/injection, schedule: Q01DX010 (sc), vehicle: saline with Tween-80) was 123 % of control and the T/C (dose: 100.0 mg/kg/injection, schedule: Q01DX010 (sc), vehicle: saline with Tween-80) was 185 % of control.
C=CC(C)NC(=S)NNC(=S)NC (stereo unspecified) was tested, and the T/C (dose: 150.0 mg/kg/injection, schedule: Q04DX004 (sc), vehicle: saline + alcohol) was 91 % of control, the T/C (dose: 300.0 mg/kg/injection, schedule: Q04DX004 (sc), vehicle: saline + alcohol) was 44 % of control and the T/C (dose: 600.0 mg/kg/injection, schedule: Q04DX004 (sc), vehicle: saline + alcohol) was 97 % of control. The T/C (dose: 1200.0 mg/kg/injection, schedule: Q04DX004 (sc), vehicle: saline + alcohol) was 74 % of control.
O=CC(O)C(O)C(O)C(O)CO (stereo unspecified) was tested, and the T/C (dose: 75.0 mg/kg/injection, schedule: Q04DX004 (ip), vehicle: saline) was 195 % of control, the T/C (dose: 150.0 mg/kg/injection, schedule: Q04DX004 (ip), vehicle: saline) was 164 % of control and the T/C (dose: 600.0 mg/kg/injection, schedule: Q04DX004 (ip), vehicle: saline) was 164 % of control.
For OC1(CSc2ccccc2)CCCCC1, the T/C [2] was 65 % of control and the T/C [1] was 68 % of control.
In the case of O=c1[nH]c2c(ccc3cnccc32)c2c1CCC2, the T/C (dose: 225.0 mg/kg/injection, schedule: Q04DX004 (sc), vehicle: suspension in saline) is reported as 67 % of control, the T/C (dose: 450.0 mg/kg/injection, schedule: Q04DX004 (sc), vehicle: suspension in saline) is reported as 67 % of control and the T/C (dose: 900.0 mg/kg/injection, schedule: Q04DX004 (sc), vehicle: suspension in saline) is reported as 73 % of control. For the same molecule, the T/C (dose: 1800.0 mg/kg/injection, schedule: Q04DX004 (sc), vehicle: suspension in saline) was 53 % of control.
For CC[As](=O)(O)CC, the T/C (dose: 100.0 mg/kg/injection, schedule: Q04DX004 (sc), vehicle: saline) was 61 % of control.
For COc1cc(Cc2nccc3cc(OC)c(OC)cc23)c(C(C)=O)c(OC)c1, the T/C (dose: 20.0 mg/kg/injection, schedule: Q01DX010 (sc), vehicle: saline) was 109 % of control and the T/C (dose: 80.0 mg/kg/injection, schedule: Q01DX010 (sc), vehicle: saline) was 64 % of control.
O=C1C2CC(Cl)C(SSC3CC4C(=O)N(SC(Cl)(Cl)C(Cl)Cl)C(=O)C4CC3Cl)CC2C(=O)N1SC(Cl)(Cl)C(Cl)Cl (stereo unspecified) was tested, and the T/C (dose: 75.0 mg/kg/injection, schedule: Q04DX004 (ip), vehicle: Klucel (hydroxypropylcellulose) (HPC)) was 56 % of control, the T/C (dose: 150.0 mg/kg/injection, schedule: Q04DX004 (ip), vehicle: Klucel (hydroxypropylcellulose) (HPC)) was 58 % of control and the T/C (dose: 300.0 mg/kg/injection, schedule: Q04DX004 (ip), vehicle: Klucel (hydroxypropylcellulose) (HPC)) was 39 % of control. The T/C (dose: 600.0 mg/kg/injection, schedule: Q04DX004 (ip), vehicle: Klucel (hydroxypropylcellulose) (HPC)) was 35 % of control.
